Assay: UV absorbing power (E1% 1 cm)
Format: physicochemical
Conditions: at the λmax printed in Table 1 (290 nm or 305 nm)
From the text: Fatty acids of Tung seed oil have good UV absorbing power as is evident from its conjugated system and from its E1% 1 cm of 1600 at 270 nm and 360 at 290 nm. These UV absorbing fatty acids can not only protect the ingredients of the formulations but also the skin and hair from the ravages of solar radiation when the formulations are applied. […] UV B radiation of solar spectrum is the most damaging since it causes skin cancer.
Both homosalate and Octyl salicylates are popular sunscreen molecules all over the world.

E1 %: 180
Structure (SMILES): CC1CC(OC(=O)c2ccccc2O)CC(C)(C)C1 (stereo not shown) [Homosalate (118-56-9), Homosalate]
